A melting point compilation (Tetko et al.; mined from patent text by program, amines drawn as free bases though some values may be those of a salt)
Residues, ends and D or L forms follow the SMILES beside them.

SMILES	melting point
CC(O)=C(C#N)C(=O)Nc1ccc(S(C)(=O)=O)cc1	205 to 206 °C
COc1cc2c(c(Cl)c1Cl)C(=O)C(C)(C)C2	142 °C
COc1cc(Oc2cccc(SC(F)(F)F)c2)nc(C(=O)NC(C)C)c1	70 to 76 °C
CS(=O)(=O)c1ccc(SC2SCC(O)C(O)C2O)cc1 (stereo not drawn)	169 to 172 °C
COC(=O)c1c(C)nn(-c2ccccn2)c1S(N)(=O)=O	196 to 198 °C
O=C1c2c(Cl)cccc2-n2cnc(/C=C\Cl)c2[C@@H]2CCN12	189 to 191 °C
O=C1CCC(c2ccc(Cl)cc2)N1c1ccccc1 (stereo not drawn)	82.5 to 83.5 °C
CS(=O)(=O)Nc1cc2c(cc1Oc1ccc(F)cc1F)C(=O)CCO2	164 to 165 °C
COC(=O)c1cc(OC)c(CNC(C)=O)c(OC)c1	184 °C
CCCNC(=O)Nc1ccccc1C(=O)OCC	98 to 99 °C
CC(C)CCC(=O)N[C@@H](Cc1ccccc1)C(=O)CSCc1ccco1	68 to 71 °C
CCCNc1onc2c1c(=O)n(C)c(=O)n2C	164 to 166 °C
COc1cc2c(cc1O)CC(C)(C)N(C(=O)c1cc(OC)c(OC)c(OC)c1)C2C (stereo not drawn)	198 to 200 °C
CNCC1(C)Cc2cc(NC)c3c(c2C(c2ccccc2)=N1)CC(C)(C)O3 (stereo not drawn)	126 to 128 °C
Cc1cc2c(cc1CSCC(=O)O)OCO2	90 to 92 °C
COC(=O)c1ccc(Cn2nc(C(N)=O)c3ccccc32)cc1	163 to 165 °C
CC(C)(C)NS(=O)(=O)c1ccc(Cl)cc1C=C1CCOC1=O	198 to 201 °C
CCOC(=O)c1cnn(-c2ccc(Cl)cc2Cl)c1C(F)(F)F	81 to 83 °C
CC(C)C1COCc2nc3c(N)nc4ccccc4c3n21 (stereo not drawn)	249 to 250 °C
NC(=O)CC(NC(=O)C(N)CO)C(=O)NC(Cc1ccccc1)C(N)=O (stereo not drawn) (H-Ser-Asn-Phe-NH2; configuration not given here)	169 to 172 °C

SMILES	melting point
COc1cc(C(=O)c2c(N)sc3c2CCN(C(=O)c2ccccc2)C3)ccc1OC(C)C	158 to 160 °C
CNS(=O)(=O)Oc1ccc2c(c1)C(C)(C)C(N1CCOCC1)O2 (stereo not drawn)	129 to 131 °C
CCOC(=O)Nc1nc(C(=NOC)C(=O)OCC)ns1	108 to 110 °C
CC(=O)OCc1c(C(=O)C(=O)O)c2cc(-c3cccc(C)c3)ccc2n1Cc1ccc(C(C)(C)C)cc1	91 to 92 °C
CCCOCCOC(=O)C1=C(C)NC(C)=C(S(=O)(=O)NC(C)C)C1c1cccc([N+](=O)[O-])c1 (stereo not drawn)	155 to 158 °C
COC(=O)[C@@H]1C[C@@H](Br)C(=O)[C@@H]2[C@@]3(C)C[C@@H](c4ccoc4)OC(=O)[C@H]3CC[C@]21C	170 to 173 °C
COC(=O)C(C)(C)Cc1cc2ccc(O)cc2n1C	125 to 126 °C
O=c1c(-c2cccc(F)c2)coc2cc(O)c(O)cc12	277 °C
O=C(c1ccccc1)N1CCN(c2c(Cl)cncc2Cl)CC1	132 to 134 °C
O=C(NC1CC1)C(Cl)Cl	130 to 132 °C
CNc1sc2c(c1C(=O)c1ccccc1)CCCC2	128 to 130 °C
Cc1cc(C2=C(/C=C/[C@H]3C[C@H](O)CC(=O)O3)C(C)(C)CC3(C2)SCCCS3)ccc1F (relative stereo)	136 to 138 °C
O=C(O)c1cn(C2CCCCC2)c2c(F)c(F)c(F)cc2c1=O	261 to 264 °C
CCOC(=O)c1cc2ccccc2n(C(C)C)c1=O	54 to 57 °C
CC(=O)OCCCC#Cc1ccccc1S(N)(=O)=O	136 to 138 °C
CCCC1C(C(=O)OCC)C(O)(C(F)(F)F)OC(O)(C(F)(F)F)C1C(=O)OCC (stereo not drawn)	128 to 132 °C
CC(=O)Nc1nc2cc(-c3ccc(C=C4SC(=O)NC4=O)cn3)cc(C34CC5CC(CC(C5)C3)C4)c2o1	> 360 °C
CC(=O)N1CCC(O)(C(=O)c2cc(F)ccc2F)CC1	118 to 120 °C
Cc1[nH]cnc1Cc1cccc2c1OC(C)(C)OC2	172 to 178 °C
O=C(O)C1=Cc2c(ccc(Cl)c2-c2ccco2)OC1C(F)(F)F (stereo not drawn)	191 to 193 °C

SMILES	melting point
C=CCNC(=O)Cc1c[nH]c2ccc(CCS(=O)(=O)NC)cc12	123 to 125 °C
CCOc1ccc2c(c1)n(C13CC4CC(CC(C4)C1)C3)c(=O)n2S(=O)(=O)c1ccc([N+](=O)[O-])cc1OC	231 °C
CC(C)Cn1nc(-c2ccc(F)c(F)c2)cc(C(=O)O)c1=O	163 to 164 °C
CCNC(=O)c1c([Si](C)(C)C)csc1Cl	46 to 48 °C
O=C(CCC1CCN(Cc2ccccc2)CC1)c1ccc(N2CCCC2)cc1	144 to 145 °C
COC(=O)c1[nH]c(Br)c(Br)c1OC(C)C	124 to 125 °C
CNC(=O)C(=NO)c1ccccc1C	160 to 161 °C
O=C(CCCN1CCC(Cc2ccccc2)CC1)c1ccc2c(c1)Cc1cc(C(=O)CCCN3CCC(Cc4ccccc4)CC3)ccc1-2	135 to 137 °C
CC1CC(=O)c2c(ccc(F)c2Cl)N1 (single isomer, unassigned; (-))	117 to 119 °C
COc1ccccc1N1CCN(C(=O)CCCCN2CC=C(c3c[nH]c4cc(F)ccc34)CC2)CC1	78 to 81 °C
O=C(NCCCCC1CCSS1)n1cc(F)c(=O)[nH]c1=O (stereo not drawn)	126 °C
O=c1ccocc1OCc1ccccc1	82 to 85 °C
CC(C)c1cc(-c2ccc(F)cc2)nc(N(C)S(C)(=O)=O)n1	138 to 139 °C
CCC(CC)c1ccc(Cl)c2nc3n(c12)CCCCN3c1ccc(N(C)C)cc1OC(F)(F)F	158 to 159 °C
CC(=O)OC(C)N1C(=O)/C(=C\c2[nH]c(C)cc2C)c2ccccc21 (stereo not drawn)	107 to 110 °C
COc1ccccc1Cc1c(N)nc(SCCCN2CCN(C(C)=O)CC2)nc1N	208 to 209 °C
CN1CCN(c2ccc(C(=O)NCCCCCCCCCCO[N+](=O)[O-])cn2)CC1	62 to 64 °C
CC(C)CC(NC1OC(=O)C2C3C=CC(C3)C12)C(=O)OCc1ccccc1 (stereo not drawn)	88 °C
Clc1nc2cc(Br)c(Br)cc2[nH]1	228 °C
CCOP(=O)(CC(=O)NC1CC1)OCC	51 to 56 °C

The next lines start with the values.

melting point	SMILES
146 to 148 °C	COc1cc(COc2nn(-c3ccccc3)cc2C=O)ccc1OCc1nc(-c2cccc(OS(C)(=O)=O)c2)oc1C
190 to 193 °C	CCCc1nc2c(N)nc3cc(-c4cccc(C(=O)N5CCOCC5)c4)ccc3c2s1
187 to 188 °C	CC(=O)Nc1c(C(=S)c2ccc(C)cc2)[nH]c2cc(Cl)ccc12
196 to 200 °C	Cc1cccc(Nc2cc(Nc3ccc(OCCCO)cc3)ncn2)c1
172 to 175 °C	Cc1cccc(NC(=O)NC2N=C(N3CCCCCC3)c3ccccc3N(C)C2=O)c1 (single isomer, unassigned; (+))
92 to 94 °C	Cn1nnnc1-c1cccc(Oc2cccc(C(F)(F)F)c2)n1
97 to 100 °C	CC1(C)COC(c2ccccc2-c2ccc(CO)cc2)=N1
201 °C	Cc1cc(-c2ccc(Cl)c(C)c2)nc(-c2cccc(-c3cccc(S(N)(=O)=O)c3)c2)n1
246 to 249 °C	O=C(O)Cc1c(C(=O)c2cccc(-c3ccco3)c2)[nH]c2cc(Cl)ccc12
129 to 130 °C	O=C(NCCOc1cc(-c2ccccc2)on1)c1ccccc1
110 to 111 °C	CC(C)=CCOc1ccc(C2=C(CC(C)C)C(=O)NC2=O)cc1
137 to 139 °C	Cc1ccc(S(=O)(=O)OCCC(=C(c2ccccc2)c2ccccc2)c2ccccc2)cc1
174 to 175 °C	COc1ccc(Oc2cccc3ncnc(NC(C)=O)c23)cc1
202 to 204 °C	CC1(C)NC(=O)c2ccc(Oc3nnnn3-c3ccccc3)cc21
147 to 149 °C	O=C(O)[C@@H]1CCCN1Cc1cc2cc3c(cc2c2cc(OCc4ccccc4)ccc12)OCO3
163 to 165 °C	N#Cc1cncc(-c2ccc(OCc3ccccc3)cc2)c1Nc1ccc2[nH]ccc2c1
92 to 95 °C	Cc1ccc(C(=O)CCN(C)Cc2cccc3ccccc23)cc1
112 °C	CCc1cc(Br)cc(CC)c1N=C(c1ccccc1)c1ccccc1
166 to 170 °C	O=C(O)c1ccc(NC(=O)C(CS)Cc2ccccc2)cc1O (stereo not drawn)

melting point	SMILES
190 to 193 °C	Nc1nc(NCCc2cccc(O)c2)nc2nc(-c3ccco3)nn12
100 to 101 °C	Cc1c(C)n(CCCF)c2c(OCc3ccccc3)nncc12
302 to 305 °C	CSc1ccc(-c2nc(O)c(C(=O)Nc3ccc(C)cc3)c(SC)n2)cc1
162 to 163 °C	COc1cc(CCC(=O)O)ccc1OCc1oc(-c2ccc(C(F)(F)F)cc2)nc1C
138 to 140 °C	COc1ccc(-c2[nH]ccc2S(=O)(=O)C(F)(F)F)cc1
268 to 270 °C	O=C(O)c1ccc(-c2cnc(-c3ccc(Cl)cc3)o2)cc1
212 to 214 °C	Cc1cccc(N2C(=O)NCc3cccnc32)c1
156 to 157 °C	COc1ccc(Cn2c(Cl)nc3c(-c4ccc(Cl)o4)ncnc32)cc1
96 to 98 °C	CN(CCCCCCCNC(=NCCCOc1cccc(CN2CCCCC2)c1)NC#N)CCN(Cc1ccc(F)cc1)c1ccccn1
129 to 130 °C	c1ccc(Oc2ccc(C3(Cn4cncn4)OCCCO3)cc2)cc1
194 to 196 °C	CCCOc1ccccc1-c1ccc(C(=O)O)c(=O)[nH]1
88 °C	CC(=O)OCCCCN(C)CCCN(C)C(=O)[C@@H]1CCCN1S(=O)(=O)c1ccc(Cl)c(COc2cccc3c(-n4ccnc4)cc(C)nc23)c1Cl
211 to 213 °C	COC(=O)c1ccc2oc(-c3ccccc3OCC(C)OC(=O)c3ccccc3)cc(=O)c2c1 (stereo not drawn)
213 to 215 °C	CC(C)COc1ccccc1Nc1ncc(C(=O)O)c(=O)[nH]1
200 to 205 °C	Cc1ccc2c(n1)C(=O)N(c1cccc3ccccc13)C2=O
183 °C	CC(=O)Oc1ccc(C(=O)c2nc3ccc(OC(C)=O)cc3s2)cc1
160 to 162 °C	CC(NC(=O)C(Cc1ccc(OCc2ccccc2)cc1)NC(=O)OC(C)(C)C)C(=O)O (stereo not drawn)
177 to 179 °C	CCCCOC(=O)COc1ccc(C(=O)Nc2cc(F)ccc2Sc2ccccc2-c2nnn[nH]2)cc1
110 to 112 °C	O=c1cc(-c2ccccc2)oc2cc(OCC(O)CCCOC3CCCCO3)ccc12 (stereo not drawn)
